# Experimental data from patent publication US8946439B2, “Amide compounds, compositions and uses thereof” (Evotec AG, priority 2008, dated 2015).
# Columns and labels:
# hP2X2/3H = target: T1, hP2X2/3H (Homo sapiens, UniProt P56373+Q9UBL9); test: Calcium uptake assay (P2X antagonist assay), P2X2/3 heteromer; type: cell-based; details: Ca influx (calcium uptake assay), hP2X2/3H; read-out: IC50 hP2X2/3H
# T1 construct: expressed in transfected cells; host or cells: e.g. HEK293 or 1321N1
# T1 sequence (Q9UBL9 1-471): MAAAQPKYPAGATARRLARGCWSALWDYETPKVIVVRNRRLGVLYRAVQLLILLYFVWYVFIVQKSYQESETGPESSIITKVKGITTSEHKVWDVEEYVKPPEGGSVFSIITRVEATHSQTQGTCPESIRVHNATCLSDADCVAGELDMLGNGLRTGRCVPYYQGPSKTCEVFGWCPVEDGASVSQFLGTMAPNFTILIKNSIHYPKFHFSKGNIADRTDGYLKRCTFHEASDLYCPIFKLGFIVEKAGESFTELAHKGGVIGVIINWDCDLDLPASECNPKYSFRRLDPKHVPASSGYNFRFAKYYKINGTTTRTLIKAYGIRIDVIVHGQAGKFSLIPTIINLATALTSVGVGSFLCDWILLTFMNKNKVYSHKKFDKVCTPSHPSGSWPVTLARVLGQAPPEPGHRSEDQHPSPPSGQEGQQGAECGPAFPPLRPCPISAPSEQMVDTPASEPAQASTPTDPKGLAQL
# T1 sequence (P56373 1-397): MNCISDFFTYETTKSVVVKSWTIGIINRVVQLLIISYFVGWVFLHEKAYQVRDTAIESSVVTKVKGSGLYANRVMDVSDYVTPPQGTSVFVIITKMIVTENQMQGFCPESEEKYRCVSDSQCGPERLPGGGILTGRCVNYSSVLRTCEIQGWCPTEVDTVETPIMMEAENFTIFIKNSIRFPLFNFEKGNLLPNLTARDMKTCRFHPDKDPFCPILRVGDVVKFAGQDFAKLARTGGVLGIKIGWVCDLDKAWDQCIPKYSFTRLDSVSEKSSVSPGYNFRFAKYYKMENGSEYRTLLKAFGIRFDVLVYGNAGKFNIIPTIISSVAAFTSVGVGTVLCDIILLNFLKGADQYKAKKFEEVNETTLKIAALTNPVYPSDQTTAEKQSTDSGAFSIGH
# In short: (§1)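 Stably or transiently transfected HEK293 or 1321N1 cells; the heteromer is made by adding P2X3 to a P2X2-stable line, with heteromer function isolated pharmacologically. The peak-minus-baseline FLIPR calcium signal gives % inhibition and a 4-parameter-logistic IC50.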
# hP2X3 = target: T2, hP2X3 (Homo sapiens, UniProt P56373); test: Calcium uptake assay (P2X antagonist assay), P2X3 homomer; type: cell-based; details: Ca influx (calcium uptake assay), hP2X3; read-out: IC50 hP2X3
# T2 construct: expressed in transfected cells; host or cells: e.g. HEK293 or 1321N1
# T2 sequence (P56373 1-397): T1 sequence (P56373 1-397)
# In short: as §1
Compound,IC50 (hP2X2/3H),IC50 (hP2X3)
Cc1ccc(-c2cc(C(=O)N[C@@H](C)CO)cc(S(=O)(=O)C(C)C)c2)cc1 [Compound 288],> 1000 nM,< 100 nM
"Cc1ccc(-c2cc(C(=O)NCc3ccc(C)nc3)cc(C(O)CO)c2)c(C#N)c1 (centres unmarked) [Compound 297, 2′-Cyano-5-(1,2-dihydroxyethyl)-4′-methyl-N-((6-methylpyridin-3-yl)methyl)biphenyl-3-carboxamide]",100 to 500 nM,< 100 nM
Cc1ccc(-c2cc(OCCO)cc(C(=O)NCc3ccc(C)nc3)c2)cc1 [Compound 301],100 to 500 nM,< 100 nM
Cc1ccc(-c2cc(CO)cc(C(=O)N[C@H](C)c3cnc(C)nc3)c2)c(C#N)c1 [Compound 303],100 to 500 nM,< 100 nM
Cc1ccc(-c2cc(CO)cc(C(=O)NCc3cnc(C)nc3)c2)c(C#N)c1 [Compound 304],100 to 500 nM,< 100 nM
Cc1ccc(-c2cc(CO)cc(C(=O)NCc3ccc(C)nc3)c2)c(C#N)c1 [Compound 306],100 to 500 nM,< 100 nM
Cc1ccc(-c2cc(C(=O)NCc3cnc(C)nc3)cc(S(C)(=O)=O)c2)nc1 [Compound 307],> 1000 nM,< 100 nM
Cc1ccc(-c2cc(OC3CCOC3)cc(C(=O)N[C@H](C)c3ccc(C)nc3)c2)c(C#N)c1 (some centres unmarked) [Compound 314],< 100 nM,< 100 nM
"Cc1ccc(-c2cc(OCC(O)CO)cc(C(=O)N[C@H](C)c3ccc(C)nc3)c2)c(C#N)c1 (stereo partly drawn) [Compound 315, 2′-Cyano-5-(2,3-dihydroxypropoxy)-4′-methyl-N—((R)-1-(6-methylpyridin-3-yl)ethyl)biphenyl-3-carboxamide]",100 to 500 nM,< 100 nM
COCC(C)Oc1cc(C(=O)N[C@H](C)c2ccc(C)nc2)cc(-c2ccc(C)cc2C#N)c1 (some centres unmarked) [Compound 316],< 100 nM,< 100 nM
Cc1ccc(-c2cc(OCC3COCCO3)cc(C(=O)N[C@H](C)c3ccc(C)nc3)c2)c(C#N)c1 (some centres unmarked) [Compound 317],< 100 nM,< 100 nM
Cc1ccc(-c2cc(OCC(O)CO)cc(C(=O)N[C@H](C)c3ccc(C)nc3)c2)cc1 (some centres unmarked) [Compound 318],< 100 nM,< 100 nM
Cc1ccc(-c2cc(C(=O)N[C@H](C)c3ccc(C)nc3)cc(C(O)CO)c2)nc1 (some centres unmarked) [Compound 319],100 to 500 nM,< 100 nM
Cc1ccc(-c2cc(CO)cc(C(=O)N[C@H](C)c3ccc(C)nc3)c2)cc1 [Compound 320],100 to 500 nM,< 100 nM
Cc1ccc(-c2cc(C(=O)N[C@H](C)c3ccc(C)nc3)cc(C(C)O)c2)cc1 (some centres unmarked) [Compound 321],< 100 nM,< 100 nM
Cc1ccc(-c2cc(C(=O)N[C@H](C)c3cnc(C)nc3)cc(S(C)(=O)=O)c2)nc1 [Compound 322],100 to 500 nM,< 100 nM
COCC(CO)Oc1cc(C(=O)N[C@H](C)c2ccc(C)nc2)cc(-c2ccc(C)cc2)c1 (some centres unmarked) [Compound 323],< 100 nM,< 100 nM
"Cc1ccc(-c2cc(OCC3CNCCO3)cc(C(=O)N[C@H](C)c3ccc(C)nc3)c2)c(C#N)c1 (stereo partly drawn) [Compound 324, 2′-Cyano-4′-methyl-N—((R)-1-(6-methylpyridin-3-yl)ethyl)-5-(morpholin-2-ylmethoxy)biphenyl-3-carboxamide]",100 to 500 nM,< 100 nM
Cc1ccc(-c2cc(OCC3CNCCO3)cc(C(=O)N[C@H](C)c3ccc(C)nc3)c2)cc1 (some centres unmarked) [Compound 325],100 to 500 nM,< 100 nM
Cc1ccc(-c2cc(OCC3COCCO3)cc(C(=O)N[C@H](C)c3ccc(C)nc3)c2)cc1 (some centres unmarked) [Compound 326],100 to 500 nM,< 100 nM
Cc1ccc(-c2cc(OC3CNCC3O)cc(C(=O)N[C@H](C)c3ccc(C)nc3)c2)cc1 (some centres unmarked) [Compound 327],100 to 500 nM,< 100 nM
COCC(C)Oc1cc(C(=O)N[C@H](C)c2ccc(C)nc2)cc(-c2ccc(C)cn2)c1 (some centres unmarked) [Compound 328],< 100 nM,< 100 nM
Cc1ccc(-c2cc(OCCO)cc(C(=O)N[C@H](C)c3ccc(C)nc3)c2)nc1 [Compound 329],100 to 500 nM,< 100 nM

# Second part, the compound after the results:
IC50 (hP2X2/3H),IC50 (hP2X3),Compound
< 100 nM,< 100 nM,Cc1ccc(-c2cc(C(=O)N[C@H](C)c3ccc(C)nc3)cc(C(O)c3ccccn3)c2)c(C#N)c1 (some centres unmarked) [Compound 284]
< 100 nM,< 100 nM,Cc1ccc(-c2cc(C(=O)N[C@H](C)c3cnc(C)nc3)cc(C(O)c3ccccn3)c2)c(C#N)c1 (some centres unmarked) [Compound 285]
< 100 nM,< 100 nM,Cc1ccc(-c2cc(C(=O)N[C@H](C)c3cnc(C)nc3)cc(C(O)c3ccccn3)c2)nc1 (some centres unmarked) [Compound 286]
< 100 nM,< 100 nM,Cc1ccc(-c2cc(C(=O)N[C@H](C)c3ccc(C)nc3)cc(C(O)c3ccccn3)c2)nc1 (some centres unmarked) [Compound 287]
< 100 nM,< 100 nM,Cc1ccc(-c2cc(C(=O)N[C@H](C)c3ccc(C)nc3)cc(C(O)CO)c2)cc1 (some centres unmarked) [Compound 289]
< 100 nM,< 100 nM,"Cc1ccc(-c2cc(CO)cc(C(=O)N[C@H](C)c3ccc(C)nc3)c2)c(C#N)c1 [Compound 290, (R)-2′-Cyano-5-(hydroxymethyl)-4′-methyl-N-(1-(6-methylpyridin-3-yl)ethyl)biphenyl-3-carboxamide]"
< 100 nM,< 100 nM,Cc1ccc(-c2cc(C(=O)N[C@H](C)c3ccc(C)nc3)cc(C(O)c3nccs3)c2)nc1 (some centres unmarked) [Compound 291]
< 100 nM,< 100 nM,Cc1ccc(-c2cc(C(=O)N[C@H](C)c3cnc(C)nc3)cc(C(O)c3nccs3)c2)nc1 (some centres unmarked) [Compound 292]
< 100 nM,< 100 nM,Cc1ccc(-c2cc(C(=O)N[C@H](C)c3cnc(C)nc3)cc(C(O)c3nccs3)c2)c(C#N)c1 (some centres unmarked) [Compound 293]
< 100 nM,< 100 nM,Cc1ccc(-c2cc(C(=O)N[C@H](C)c3ccc(C)nc3)cc(C(O)c3nccs3)c2)c(C#N)c1 (some centres unmarked) [Compound 294]
< 100 nM,< 100 nM,"Cc1ccc(-c2cc(C(=O)N[C@H](C)c3ccc(C)nc3)cc(C(O)C(F)(F)F)c2)c(C#N)c1 (stereo partly drawn) [Compound 295, 2′-Cyano-4′-methyl-N—((R)-1-(6-methylpyridin-3-yl)ethyl)-5-(2,2,2-trifluoro-1-hydroxyethyl)biphenyl-3-carboxamide]"
< 100 nM,< 100 nM,Cc1ccc(-c2cc(C(=O)NCc3ccc(C)nc3)cc(C(O)C(F)(F)F)c2)c(C#N)c1 (centres unmarked) [Compound 296]
< 100 nM,< 100 nM,Cc1ccc(-c2cc(C(=O)N[C@H](C)c3ccc(C)nc3)cc(C(O)CO)c2)c(C#N)c1 (some centres unmarked) [Compound 298]
< 100 nM,< 100 nM,COCC(C)Oc1cc(C(=O)N[C@H](C)c2ccc(C)nc2)cc(-c2ccc(C)cc2)c1 (some centres unmarked) [Compound 299]
< 100 nM,< 100 nM,COCC(C)Oc1cc(C(=O)NCc2ccc(C)nc2)cc(-c2ccc(C)cc2)c1 (centres unmarked) [Compound 300]
< 100 nM,< 100 nM,Cc1ccc(-c2cc(OCCO)cc(C(=O)N[C@H](C)c3ccc(C)nc3)c2)cc1 [Compound 302]
< 100 nM,< 100 nM,Cc1ccc(-c2cc(OCCO)cc(C(=O)N[C@H](C)c3ccc(C)nc3)c2)c(C#N)c1 [Compound 305]
< 100 nM,< 100 nM,"Cc1ccc(-c2cc(OC3CCOC3)cc(C(=O)N[C@H](C)c3ccc(C)nc3)c2)cc1 (stereo partly drawn) [Compound 308, 4′-Methyl-N—((R)-1-(6-methylpyridin-3-yl)ethyl)-5-(tetrahydrofuran-3-yloxy)biphenyl-3-carboxamide]"
< 100 nM,100 to 500 nM,Cc1ccc(-c2cc(OCC3CCOC3)cc(C(=O)N[C@H](C)c3ccc(C)nc3)c2)cc1 (some centres unmarked) [Compound 309]
< 100 nM,< 100 nM,"Cc1ccc(-c2cc(OCC3CCCO3)cc(C(=O)N[C@H](C)c3ccc(C)nc3)c2)cc1 (stereo partly drawn) [Compound 310, 4′-Methyl-N—((R)-1-(6-methylpyridin-3-yl)ethyl)-5-((tetrahydrofuran-2-yl)methoxy)biphenyl-3-carboxamide]"
< 100 nM,< 100 nM,Cc1ccc(-c2cc(C(=O)N[C@H](C)c3ccc(C)nc3)cc(C(C)O)c2)c(C#N)c1 (some centres unmarked) [Compound 311]
< 100 nM,< 100 nM,Cc1ccc(-c2cc(OCC3CCCO3)cc(C(=O)N[C@H](C)c3ccc(C)nc3)c2)c(C#N)c1 (some centres unmarked) [Compound 312]
< 100 nM,< 100 nM,Cc1ccc(-c2cc(OCC3CCOC3)cc(C(=O)N[C@H](C)c3ccc(C)nc3)c2)c(C#N)c1 (some centres unmarked) [Compound 313]
